Results published in patent publication US8808992B2, “SHOC2 mutations causing noonan-like syndrome with loose anagen hair” (Icahn School of Medicine at Mount Sinai, priority 2009, dated 2014).

Molecular target: T1, NMT (Homo sapiens, UniProt P30419)
T1 construct: host or cells: Cos-1
T1 sequence (P30419 1-496): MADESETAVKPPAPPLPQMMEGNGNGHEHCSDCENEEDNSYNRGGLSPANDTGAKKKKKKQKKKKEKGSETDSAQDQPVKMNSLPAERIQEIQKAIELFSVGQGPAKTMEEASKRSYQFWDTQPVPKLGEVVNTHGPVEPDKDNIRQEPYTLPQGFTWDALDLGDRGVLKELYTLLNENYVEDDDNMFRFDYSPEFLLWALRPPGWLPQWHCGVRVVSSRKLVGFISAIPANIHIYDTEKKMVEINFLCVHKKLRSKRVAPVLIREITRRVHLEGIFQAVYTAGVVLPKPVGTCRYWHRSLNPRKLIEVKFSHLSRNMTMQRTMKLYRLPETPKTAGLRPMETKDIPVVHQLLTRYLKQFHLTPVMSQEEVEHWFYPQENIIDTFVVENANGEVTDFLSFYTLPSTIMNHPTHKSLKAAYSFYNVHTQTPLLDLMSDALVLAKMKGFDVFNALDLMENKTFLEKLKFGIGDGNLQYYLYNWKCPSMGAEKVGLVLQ
Experiment: Membrane targeting of V5-tagged SHOC2^S2G in Cos-1 cells treated with an NMT inhibitor (confocal laser scanning microscopy)
Type: cell-based, African green monkey
Procedure: FIG. 8. Myristoylation is required for membrane targeting of the SHOC2^S2G mutant. […] Confocal laser scanning microscopy was performed using anti-V5 monoclonal antibody, followed by Alexa Fluor-594 goat anti-mouse antibody (red), while actin cytoskeleton was detected by Alexa Fluor 488-phalloidin (green). Nuclei are visualized by DAPI staining (blue). Co-localization areas were detected in yellow. Images represent single optical sections representative of >50 transfected cells observed in each experiment. Bars indicate 20 μm.
N-myristoylation facilitates anchoring of proteins to intracellular membranes. To explore whether it conferred membrane targeting to mutant SHOC2, the subcellular localization of tagged SHOC2 proteins was analyzed in Cos-1 cells (FIG. 2b and FIG. 6). Confocal laser microscopy analysis documented that SHOC2^wt was uniformly distributed in the cytoplasm and nucleus in starved cells but was restricted to the nucleus following EGF stimulation, implying an unexpected role for this protein in signal transduction. […]
In silico analysis of protein N-myristoylation was performed using Myristoylator (http://www.expasy.org/tools/myristoylator/), TermiNator (http://www.isv.cnrs-gif.fr/terminator3/index.html) and NMT (http.//mendel.imp.ac.at/sat/myristate/index.html) software. […] N-myristoylation was evaluated by [^3H]myristic acid (30 μCi/ml) incorporation as described elsewhere^26. […]

CCCCCCCCCCCCC(O)C(=O)O (centres unmarked) [2-hydroxymyristic acid]
membrane targeting of V5-tagged SHOC2^S2G (Cos-1 cells treated with 200 μM (middle) and 300 μM (bottom), compared with untreated cells): progressively lost | SHOC2^S2G's membrane localization (Cos-1 cells, treatment at varying doses (FIG. 8)): reduced or abolished
